Eleven compounds from US20110028441A1, “NOVEL PHENYL-SUBSTITUTED PIPERAZINO-DIHYDROTHIENOPYRIMIDINES” (BOEHRINGER INGELHEIM INTERNATIONAL GMBH, priority 2007, published 2011) can be followed below.

Read-outs that look alike come from different tables or passages of the source.

This assay concerns the target PDE4B (Homo sapiens, UniProt Q07343). Kind of assay: Scintillation Proximity (SPA) Assay of PDE4B enzyme inhibition. Conditions: read-out: % Inhibition PDE4B @ 1 μM. The class given is biochemical. The procedure:
The inhibitions (in %) at 1 μM of the individual Example substances are included in the following Tables of Examples and were determined as follows:
The Scintillation Proximity (SPA) Assays (GE Healthcare, No. TRKQ7090) make use of the different affinities of cyclic 3′-5′-adenosine monophosphate (cAMP, low affinity) and linear 5′-adenosine monophosphate (AMP, high affinity) for yttrium silicate scintillator beads. The cAMP specific phosphodiesterase (PDE) PDE4B cleaves the 3′-phosphoester bond of the tritium-labelled [H3]-cAMP to form the [H3]-5′-AMP. Because of its higher affinity for the scintillator beads this [H3]-AMP accumulates on the beads and causes scintillation events (flashes of light) which are measured in a Wallac Microbeta Scintillation Counter.
The test starts with one hours incubation of [H3]-cAMP with the PDE4B enzyme in assay buffer at 30° C., once with the Example substance that is to be tested (in a concentration of 1 μM) and once without the Example substance that is to be tested. After this incubation the reaction is stopped by the addition of the beads. The beads are given an opportunity to settle over the next 45 minutes, then they are measured in the Scintillation Counter. If the substance is capable of inhibiting the enzymatic activity of the PDE4B, less [H3]-AMP is formed during the incubation phase and fewer scintillation events can be measured.

The mark [1] stands for this setting: test substance 1 μM, one hour incubation of [H3]-cAMP with PDE4B enzyme at 30° C.

As usually defined, the inhibition is the drop in the measured response relative to a control, in per cent.

Sequence of PDE4B (Q07343 whole entry, species assumed): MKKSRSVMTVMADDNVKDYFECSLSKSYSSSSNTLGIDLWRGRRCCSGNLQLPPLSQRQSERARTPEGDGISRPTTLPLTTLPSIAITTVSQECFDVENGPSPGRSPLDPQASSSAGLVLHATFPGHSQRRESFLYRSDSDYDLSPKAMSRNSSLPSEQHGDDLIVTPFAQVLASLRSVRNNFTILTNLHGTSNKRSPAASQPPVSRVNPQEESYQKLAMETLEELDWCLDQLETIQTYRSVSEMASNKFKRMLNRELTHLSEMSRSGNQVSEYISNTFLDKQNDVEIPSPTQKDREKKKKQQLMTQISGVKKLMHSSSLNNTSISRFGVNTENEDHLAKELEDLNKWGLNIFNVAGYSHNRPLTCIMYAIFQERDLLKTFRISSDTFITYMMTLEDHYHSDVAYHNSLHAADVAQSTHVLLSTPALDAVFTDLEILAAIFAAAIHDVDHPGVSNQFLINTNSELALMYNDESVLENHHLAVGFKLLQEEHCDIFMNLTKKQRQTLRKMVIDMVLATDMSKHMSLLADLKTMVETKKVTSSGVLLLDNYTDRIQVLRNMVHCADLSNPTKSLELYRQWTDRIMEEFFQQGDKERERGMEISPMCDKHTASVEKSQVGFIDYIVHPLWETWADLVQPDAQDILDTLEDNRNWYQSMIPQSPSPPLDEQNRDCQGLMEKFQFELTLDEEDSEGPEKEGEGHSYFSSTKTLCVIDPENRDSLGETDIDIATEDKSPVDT

For `CC(C)[C@H](CO)Nc1nc(N2CCN(c3cc(Cl)cc(Cl)c3)CC2)nc2c1[S+]([O-])CC2` (stereo partly drawn) [Example 68, (R)-2-{2-[4-(3,5-DICHLOROPHENYL)-PIPERAZIN-1-YL]-5-OXO-6,7-DIHYDRO-5H-5λ^4-THIENO[3,2-D]PYRIMIDIN-4-YLAMINO}-3-METHYLBUTAN-1-OL], under setting [1], the inhibition at 1 µM was found to be 96%.
On the same count and under the same terms, with `Cc1cc(Cl)ccc1N1CCN(c2nc3c(c(N[C@@H](CO)C(C)C)n2)[S+]([O-])CC3)CC1` (stereo partly drawn) [Example 75, (R)-2-{2-[4-(4-CHLORO-2-METHYLPHENYL)-PIPERAZIN-1-YL]-5-OXO-6,7-DIHYDRO-5H-5λ^4-THIENO[3,2-D]PYRIMIDIN-4-YLAMINO}-3-METHYLBUTAN-1-OL] the figure was 90%; with `Cc1cc(Cl)ccc1N1CCN(c2nc3c(c(NC4(CO)CC4)n2)[S+]([O-])CC3)CC1` (centres unmarked) [Example 81, (1-{2-[4-(4-CHLORO-2-METHYLPHENYL)-PIPERAZIN-1-YL]-5-OXO-6,7-DIHYDRO-5H-5λ^4-THIENO[3,2-D]PYRIMIDIN-4-YLAMINO}-CYCLOPROPYL)-METHANOL], 95%.
In the case of `Cc1cc(Cl)ccc1N1CCN(c2nc3c(c(N[C@H]4CCC(=O)N(C)C4)n2)[S+]([O-])CC3)CC1` (stereo partly drawn) [Example 90, (S)-5-{2-[4-(4-CHLORO-2-METHYLPHENYL)-PIPERAZIN-1-YL]-5-OXO-6,7-DIHYDRO-5H-5λ^4-THIENO[3,2-D]PYRIMIDIN-4-YLAMINO}-1-METHYLPIPERIDIN-2-ONE], the inhibition at 1 µM amounted to 97%.
On to `Cc1cc(Cl)ccc1N1CCN(c2nc3c(c(NC4CCOCC4)n2)[S+]([O-])CC3)CC1` (centres unmarked) [Example 98, {2-[4-(4-CHLORO-2-METHYLPHENYL)-PIPERAZIN-1-YL]-5-OXO-6,7-DIHYDRO-5H-5λ^4-THIENO[3,2-D]PYRIMIDIN-4-YL}-(TETRAHYDROPYRAN-4-YL)-AMINE], for which the inhibition at 1 µM under setting [1] amounted to 96%.
The same measure, in the same setting: with `[O-][S+]1CCc2nc(N3CCN(c4cc(Cl)cc(Cl)c4)CC3)nc(Nc3cccc(F)c3)c21` (centres unmarked) [Example 99, {2-[4-(3,5-DICHLOROPHENYL)-PIPERAZIN-1-YL]-5-OXO-6,7-DIHYDRO-5H-5λ^4-THIENO[3,2-D]PYRIMIDIN-4-YL}-(3-FLUOROPHENYL)-AMINE] the figure was 96%.
`Cc1cc(C)cc(N2CCN(c3nc4c(c(Nc5cccc(F)c5)n3)[S+]([O-])CC4)CC2)c1` (centres unmarked) [Example 100, {2-[4-(3,5-DIMETHYLPHENYL)-PIPERAZIN-1-YL]-5-OXO-6,7-DIHYDRO-5H-5λ^4-THIENO[3,2-D]PYRIMIDIN-4-YL}-(3-FLUOROPHENYL)-AMINE]: the inhibition at 1 µM came to 97%.
For the compound `[O-][S+]1CCc2nc(N3CCN(c4ccc(Cl)cc4F)CC3)nc(NC3(CO)CC3)c21` (centres unmarked) [Example 105, (1-{2-[4-(4-CHLORO-2-FLUOROPHENYL)-PIPERAZIN-1-YL]-5-OXO-6,7-DIHYDRO-5H-5λ^4-THIENO[3,2-D]PYRIMIDIN-4-YLAMINO}-CYCLOPROPYL)-METHANOL], under setting [1], the inhibition at 1 µM is 94%.
Regarding `[O-][S+]1CCc2nc(N3CCN(c4ccc(Cl)cc4F)CC3)nc(NC3CCOCC3)c21` (centres unmarked) [Example 107, {2-[4-(4-CHLORO-2-FLUOROPHENYL)-PIPERAZIN-1-YL]-5-OXO-6,7-DIHYDRO-5H-5λ^4-THIENO[3,2-D]PYRIMIDIN-4-YL}-(TETRAHYDROPYRAN-4-YL)-AMINE], the inhibition at 1 µM under setting [1] was 94%.
Regarding `[O-][S+]1CCc2nc(N3CCN(c4ccc(Cl)cc4F)CC3)nc(Nc3cccc(F)c3)c21` (centres unmarked) [Example 109, {2-[4-(4-CHLORO-2-FLUOROPHENYL)-PIPERAZIN-1-YL]-5-OXO-6,7-DIHYDRO-5H-5λ^4-THIENO[3,2-D]PYRIMIDIN-4-YL}-(3-FLUOROPHENYL)-AMINE], the inhibition at 1 µM under setting [1] came to 92%.
On to `CC(C)[C@H](CO)Nc1nc(N2CCN(c3ccc(Cl)cc3F)CC2)nc2c1[S+]([O-])CC2` (stereo partly drawn) [Example 111, (R)-2-{2-[4-(4-CHLORO-2-FLUOROPHENYL)-PIPERAZIN-1-YL]-5-OXO-6,7-DIHYDRO-5H-5λ^4-THIENO[3,2-D]PYRIMIDIN-4-YLAMINO}-3-METHYLBUTAN-1-OL], for which the inhibition at 1 µM under setting [1] worked out at 92%.
